The results in this text go back to US20250340561A1, “QUINAZOLINE COMPOUND FOR INDUCING DEGRADATION OF G12D MUTANT KRAS PROTEIN” (Astellas Pharma Inc., priority 2021, published 2025).

The test system of assay [1] is phosphorylation of ERK (Thr202/Tyr204). Kind of assay: Test Example 2: ERK phosphorylation inhibition action in AsPC-1, Cell ELISA. The assay is classed as cell-based, human. The note with it: AsPC-1 cells, 0% = 1 μM trametinib. Here is the method:
Test Example 2: Evaluation of ERK Phosphorylation Inhibition Action on Human G12D Mutant KRAS-Positive Pancreatic Cancer Line AsPC-1
The ERK phosphorylation inhibition action of test compounds was evaluated by measuring phosphorylation of the 202th threonine (Thr202) and the 204th tyrosine (Tyr204) of ERK located downstream of the KRAS signal by Cell ELISA.
AsPC-1 cells were seeded on a 384-well plate (from Greiner bio-one) at 36 μL/well to give 2.0×10^4 cells per well. As for the cell culture conditions, a RPMI 1640 medium containing 10% fetal bovine serum was used in the presence of 5% CO2 at 37° C.
The next day, the test compounds (6 points having final concentrations in the range of 10 μM to 3.0 nM), trametinib (MEK inhibitor) of a final concentration of 1 μM as a positive control and DMSO, which was the solvent for the test compounds, as a negative control were diluted 100-fold with a fresh medium and were added at 4 μL per well. The cells were then cultured for 24 hours. After culturing, a 30% glyoxal solution (40% glyoxal [from Nacalai Tesque] was diluted with PBS) was quickly added at 30 μL per well, and the plate was allowed to stand for 90 minutes at room temperature to thus immobilize the cells. Then, the plate was centrifuged to remove the supernatant (using a centrifugal dehydrator machine, the supernatant was removed by the same method hereinafter), and 0.1% Triton X-100-containing PBS was added at 20 μL per well. After allowing to stand for 10 minutes at room temperature, the supernatant was removed by centrifugation, and the same operation was further repeated. Next, 0.5% SDS-containing PBS was added at 20 μL per well, and after allowing to stand at room temperature for 30 minutes, the supernatant was removed by centrifugation. Subsequently, a blocking solution (Intercept Blocking Buffer) was added at 20 μL per well, and the plate was allowed to stand for 1 hour at room temperature. The supernatant was removed by centrifugation, and an ERK (Thr202/Tyr204) phosphorylation antibody (Phospho-p44/42 MAPK (Erk 1/2) (Thr202/Tyr204) (D13.14.4E) XP Rabbit mAb; from Cell Signaling Technology) diluted 2,500-fold with a blocking solution was added at 10 or 15 μL per well as a primary antibody. The plate was allowed to stand at 4° C. overnight.
The next day, the plate was centrifuged to remove the supernatant. 0.05% Tween-20-containing PBS was added at 50 μL per well, and the supernatant was removed by centrifugation to thus wash each well. The washing was performed three times in total. After washing, Goat anti-Rabbit IgG H&L (IRDye 800CW) diluted 1,000-fold with a blocking solution was added at […] as a secondary antibody, and the plate was allowed to stand for 1 hour at room temperature. The plate was centrifuged to remove the supernatant, and each well was washed three times with 0.05% Tween-20-containing PBS in the same manner as after the primary antibody reaction. After removing the supernatant by centrifuging the plate, the plate was dried as it was with air at room temperature for 3 hours or more, and the 800-nm fluorescent signals were measured with Aerius.
With the signaling value at the time of addition of DMSO taken as 100% and with the signaling value at the time of addition of 1 μM trametinib taken as 0%, the 50% inhibition values (IC50) were calculated by Sigmoid-Emax model nonlinear regression analysis. The molecular weights of the test compounds were calculated as the molecular weights of the dihydrochloride for Example No. 22, the trihydrochlorides for Example Nos. 2-7, 9-12, 14-18 and 30, the tetrahydrochlorides for Example Nos. 19 and 46, the pentahydrochloride for Example No. 21 and the free forms forming no salt for the remaining Example Nos. The results for some test compounds of the formula (I) are shown in Table 3.
Background: In an ELISA, binding on a coated surface is turned into a signal by an enzyme label.

Assay [2] concerns human G12D mutant KRAS-positive pancreatic cancer line AsPC-1. As to the kind of experiment: Test Example 3: non-anchorage-dependent cell growth inhibition, spheroid 3D cell culture. The note with it: AsPC-1 spheroid 3D culture, 6 days, CellTiter Glo 2.0. It is filed as cell-based. Here is the method: Test Example 3: Evaluation of Non-Anchorage-Dependent Cell Growth Inhibition Action on Human G12D Mutant KRAS-Positive Pancreatic Cancer Line AsPC-1
The non-anchorage-dependent cell growth inhibition action of test compounds was evaluated by spheroid 3D cell culture.
AsPC-1 cells were seeded on a low-cell-adhesive round bottom 384-well plate (PrimeSurface: from Sumitomo Bakelite) at 36 μL/well to give 5×10^2 cells per well. The cell culture was performed under the same conditions as in the Test Example 2.
The next day, the test compounds (6 points having final concentrations in the range of 10 μM to 3.0 nM) and DMSO, which was the solvent for the test compounds, as a negative control were diluted 100-fold with a fresh medium and were added at 4 μL per well. After culturing in the presence of […] at 37° C. for 6 days, CellTiter Glo 2.0 (from Promega) was added at 20 μL per well. After stirring with a plate mixer (from FINEPCR) at normal temperature for 1 hour, the luminescent signals were measured with ARVO X3 (from PerkinElmer).
With the signaling value in treatment with DMSO taken as […] and with the signaling value in the medium alone without cells taken as […], the […] inhibition values (IC50) were calculated by Sigmoid-Emax model nonlinear regression analysis. The molecular weights of the test compounds were calculated as the molecular weights of the dihydrochloride for Example No. 22, the trihydrochlorides for Example Nos. 2-7, 9-12, 14-18 and 30, the tetrahydrochlorides for Example Nos. 19 and 46, the pentahydrochloride for Example No. 21 and the free forms forming no salt for the remaining Example Nos. The results for some test compounds of the formula (I) are shown in Table 4.

Setting [3] is: Homo sapiens, ASPC1, 24 h, read-out: IC50.
Setting [4] is: Homo sapiens, ASPC1, 144 h, read-out: IC50.

Where a name gives a salt, the structure may show the parent alone. Read-outs that look alike come from different tables or passages of the source.

As usually defined, the IC50 is the concentration that inhibits the measured activity by half.

As to `Cc1ncsc1-c1ccc([C@H](CO)NC(=O)[C@@H]2C[C@@H](O)CN2C(=O)[C@H](C(C)C)n2cc(-c3ccc(COc4c(-c5c(C)c(F)cc6[nH]ncc56)c(C5CC5)cc5c(N6C[C@@H]7C[C@H]6CN7)nc(OC[C@H]6CCCN6C)nc45)cc3)nn2)cc1` [Example 60], the IC50 worked out at 50 nM in assay [1] (Homo sapiens, ASPC1, 24 h) and 127 nM in assay [2] (Homo sapiens, ASPC1, 144 h).
For `Cc1ncsc1-c1ccc([C@H](CO)NC(=O)[C@@H]2C[C@@H](O)CN2C(=O)[C@@H](NC(=O)c2ccc(COc3c(-c4c(C)c(F)cc5[nH]ncc45)c(C4CC4)cc4c(N5C[C@@H]6C[C@H]5CN6)nc(OC5CCOCC5)nc34)cc2)C(C)C)cc1` [Example 3], the IC50 stood at 62 nM in assay [1] (Homo sapiens, ASPC1, 24 h) and 108 nM in assay [2] (Homo sapiens, ASPC1, 144 h).
As to `Cc1ncsc1-c1ccc([C@H](CO)NC(=O)[C@@H]2C[C@@H](O)CN2C(=O)[C@H](C2CC2)n2cc(-c3ccc(COc4c(-c5c(C)c(F)cc6[nH]ncc56)c(C5CC5)cc5c(N6C[C@@H]7C[C@H]6CN7)nc(OC6CCOCC6)nc45)cc3)nn2)cc1` [Example 73], the half-maximal inhibitory concentration (IC50) in assay [1] (setting [3]) worked out at 133 nM; in assay [2] (setting [4]), 112 nM.
For `Cc1ncsc1-c1ccc([C@H](CO)NC(=O)[C@@H]2C[C@@H](O)CN2C(=O)[C@H](C(C)C)N2Cc3cc(COc4c(-c5c(C)c(F)cc6[nH]ncc56)c(C5CC5)cc5c(N6C[C@@H]7C[C@H]6CN7)nc(OC6CCOCC6)nc45)ccc3C2=O)cc1` [Example 4], the IC50 in assay [1] (Homo sapiens, ASPC1, 24 h) was 522 nM; in assay [2] (Homo sapiens, ASPC1, 144 h) it was 670 nM.
In the same order, the values of `Cc1c(F)cc2[nH]ncc2c1-c1c(C2CC2)cc2c(N3C[C@@H]4C[C@H]3CN4)nc(OC3CCOCC3)nc2c1OCc1ccc(-c2cn([C@H](C(=O)N3C[C@H](O)C[C@H]3C(=O)N[C@@H](CO)c3ccc(F)cc3)C(C)C)nn2)cc1` [Example 13] are 29 nM and 74 nM.
As to `CO[C@H](C)COc1nc(N2C[C@@H]3C[C@H]2CN3)c2cc(C3CC3)c(-c3c(C)c(F)cc4[nH]ncc34)c(OCc3ccc(-c4cn([C@H](C(=O)N5C[C@H](O)C[C@H]5C(=O)N[C@@H](CO)c5ccc(-c6scnc6C)cc5)C(C)C)nn4)cc3)c2n1` [Example 47], the IC50 in assay [1] (Homo sapiens, ASPC1, 24 h) was 18 nM; in assay [2] (Homo sapiens, ASPC1, 144 h), 22 nM.
Take `Cc1c(F)cc2[nH]ncc2c1-c1c(C2CC2)cc2c(N3C[C@@H]4C[C@H]3CN4)nc(OC3CCOCC3)nc2c1OCc1ccc(-c2cn([C@H](C(=O)N3C[C@H](O)C[C@H]3C(=O)N[C@@H](CO)c3ccc(-n4ccnc4C)cc3)C(C)C)nn2)cc1` [Example 69]: the results for the IC50 in assay [1] (setting [3]) and in assay [2] (setting [4]) were 17 nM and 64 nM, respectively.
`Cc1ncsc1-c1ccc([C@H](CO)NC(=O)[C@@H]2C[C@@H](O)CN2C(=O)[C@H](C(C)C)n2cc(-c3ccc(COc4c(-c5c(C)c(F)cc6[nH]ncc56)c(C5CC5)cc5c(N6C[C@@H]7C[C@H]6CN7)nc(OC6CCOCC6)nc45)cc3)nn2)cc1` [Example 8, (4R)-1-[(2S)-2-(4-{4-[({6-cyclopropyl-4-[(1S,4S)-2,5-diazabicyclo[2.2.1]heptan-2-yl]-7-(6-fluoro-5-methyl-1H-indazol-4-yl)-2-[(oxan-4-yl)oxy]quinazolin-8-yl}oxy)methyl]phenyl}-1H-1,2,3-triazol-1-yl)-3-methylbutanoyl]-4-hydroxy-N-{(1R)-2-hydroxy-1-[4-(4-methyl-1,3-thiazol-5-yl)phenyl]ethyl}-L-prolinamide]: the IC50 in assay [1] (24 hours, read-out: IC50) is 15 nM; in assay [2] (read-out: IC50), 23 nM.
Regarding `Cc1ncsc1-c1ccc([C@H](CO)NC(=O)[C@@H]2C[C@@H](O)CN2C(=O)[C@H](C(C)C)n2cc(-c3ccc(COc4c(-c5c(C)c(F)cc6[nH]ncc56)c(C5CC5)cc5c(N6C[C@@H]7C[C@H]6CN7)nc(O[C@H]6CCN(CC(F)F)C6)nc45)cc3)nn2)cc1` [Example 33], the IC50 in assay [1] (Homo sapiens, ASPC1, 24 h) was found to be 32 nM; in assay [2] (Homo sapiens, ASPC1, 144 h), 42 nM.
For `Cc1c(F)cc2[nH]ncc2c1-c1c(C2CC2)cc2c(N3C[C@@H]4C[C@H]3CN4)nc(OC3CCOCC3)nc2c1OCc1ccc(-c2cn([C@H](C(=O)N3C[C@H](O)C[C@H]3C(=O)N[C@@H](CO)c3ccc(-c4scnc4CO)cc3)C(C)C)nn2)cc1` [Example 18, (4R)-1-[(2S)-2-(4-{4-[({6-cyclopropyl-4-[(1S,4S)-2,5-diazabicyclo[2.2.1]heptan-2-yl]-7-(6-fluoro-5-methyl-1H-indazol-4-yl)-2-[(oxan-4-yl)oxy]quinazolin-8-yl}oxy)methyl]phenyl}-1H-1,2,3-triazol-1-yl)-3-methylbutanoyl]-4-hydroxy-N-[(1R)-2-hydroxy-1-{4-[4-(hydroxymethyl)-1,3-thiazol-5-yl]phenyl}ethyl]-L-prolinamide n hydrochloride], the figures for the half-inhibitory concentration (IC50) in assay [1] (setting [3]) and in assay [2] (setting [4]) were 28 nM and 70 nM, respectively.
For `Cc1ncsc1-c1ccc([C@H](CO)NC(=O)[C@@H]2C[C@@H](O)CN2C(=O)[C@H](C(C)C)n2cc(-c3ccc(COc4c(-c5c(C)c(F)cc6[nH]ncc56)c(C5CC5)cc5c(N6C[C@@H]7C[C@H]6CN7)nc(O[C@@H]6CCN(CC(F)F)C6)nc45)cc3)nn2)cc1` [Example 34], the IC50 in assay [1] (Homo sapiens, ASPC1, 24 h) amounted to 26 nM; in assay [2] (Homo sapiens, ASPC1, 144 h), 33 nM.
On to `CO[C@@H](C)COc1nc(N2C[C@@H]3C[C@H]2CN3)c2cc(C3CC3)c(-c3c(C)c(F)cc4[nH]ncc34)c(OCc3ccc(-c4cn([C@H](C(=O)N5C[C@H](O)C[C@H]5C(=O)N[C@@H](CO)c5ccc(-n6ccnc6C)cc5)C(C)C)nn4)cc3)c2n1` [Example 71], for which the half-inhibitory concentration (IC50) was determined as 38 nM in assay [1] (setting [3]) and 51 nM in assay [2] (setting [4]).
As to `Cc1ncsc1-c1ccc([C@H](CO)NC(=O)[C@@H]2C[C@@H](O)CN2C(=O)[C@H](C(C)C)n2cc(-c3ccc(COc4c(-c5c(C)c(F)cc6[nH]ncc56)c(C5CC5)cc5c(N6C[C@@H]7C[C@H]6CN7)nc(OC[C@H]6CCOC6)nc45)cc3)nn2)cc1` [Example 52], the IC50 in assay [1] (24 hours) turned out to be 11 nM; in assay [2], 31 nM.
Consider `CO[C@@H](C)COc1nc(N2C[C@@H]3C[C@H]2CN3)c2cc(C3CC3)c(-c3c(C)c(F)cc4[nH]ncc34)c(OCc3ccc(-c4cn([C@H](C(=O)N5C[C@H](O)C[C@H]5C(=O)N[C@@H](CO)c5ccc(-c6scnc6C)cc5)C(C)C)nn4)cc3)c2n1` [Example 48], for which the IC50 amounted to 8 nM in assay [1] (Homo sapiens, ASPC1, 24 h) and 20 nM in assay [2] (Homo sapiens, ASPC1, 144 h).
